Here are results for two compounds from US20140271644A1, “COMBINATION/ADJUVANT THERAPY FOR WT-1-POSITIVE DISEASE” (Memorial Sloan-Kettering Cancer Center, priority 2013, published 2014).

Each structure is given as a SMILES string.

Data set [1] deals with BV173 human leukemia cells. Description: Dasatinib plus ESKM in BV173 human leukemia xenograft NSG model. The following applies: after 4 weeks of therapy; dasatinib 40 then 20 mg/kg daily IP, stopped on day 11; antibody 100 μg twice a week. Type of data set: in vivo, NSG mice. As for the experimental part: (§1) In vivo efficacy of ESKM with TKIs was evaluated using NSG mice injected with HLA-A0201^+ leukemic cell line BV173. The protocol used for imatinib and dasatinib therapy in combination with ESKM consisted of injecting 3×10^6 cells per mouse via tail vein, luciferin imaging 6 days after injection to assess tumor engraftment, and initiation of therapy immediately after imaging on day 6. Luciferin imaging was used weekly to monitor tumor growth. The TKI is injected intraperitoneally daily (50 mg/kg for imatinib and 20-40 mg/kg for dasatinib.) The antibody is injected intravenously twice per week.

For data set [2] the following is noted: cited from earlier work.
The conditions of data set [3]: mouse, in vivo.
Protocol: Three million BV173 human leukemia cells were injected IV by tail vein into NSG mice. […] Immediately after imaging on day 6, therapy was initiated with anti-WT-1 antibody ESKM 100 μg administered by intraperitoneal (IP) injection twice weekly. Dasatinib was also administered by IP injection at 40 mg/kg daily. […] Group A: No therapy; Group B: DMSO only (vehicle control); Group C: dasatinib treatment only; Group D: ESK treatment only; Group E: combination of both dasatinib daily and ESK twice weekly. […] The dose was decreased to 20 mg/kg. […] ESK antibody continued to be administered for the full 4 week treatment cycle. Tumor growth continued to be assessed by luminescence imaging weekly.
After 4 weeks of therapy, animals were imaged by fluorescent luciferin imaging, and the fluorescence was quantified using Living Image® software, quantifying mouse tumor burden.
Data set [4] relates to BV173 human leukemia cells. In words: Imatinib plus ESKM in BV173 human leukemia xenograft NSG model. The data set is classed as in vivo, NSG mice. Particulars: after 5 weeks of therapy; imatinib 50 mg/kg daily IP; antibody 100 μg twice a week. The method, then:
as §1
Imatinib was also administered by IP injection at 50 mg/kg daily. Therapy continued for 5 weeks (10 doses of ESKM and 34 doses of imatinib per mouse). Group A: No therapy; Group B: imatinib treatment only; Group C: ESK treatment only; Group D: combination of both imatinib daily and ESK twice weekly. Tumor growth was assessed by luminescence imaging weekly, and clinical activity was assessed daily.
This allows for the quantification of mouse tumor burden. […] (FIG. 2)

For data set [5], the system named is BV173 cells. In words: ADCC, chromium 51 release assay. The data set is classed as cell-based, human. The following applies: imatinib 1 μM, 5 μM or 10 μM, various E:T ratios, fresh BV173 cells. The method, then:
ADCC is considered to be one of the major effector mechanisms of therapeutic mAb in humans. Evaluation of efficacy, therefore, begins with in vitro experiments measuring ADCC against BV173 cell line, derived from CML in blastic crisis. Fresh BV173 cells were used for ADCC target cells. WT-1 antibody or its isotype control human IgG1 was incubated at 750 ng/ml with target cells and fresh PBMCs at different effector:target (E:T) ratio for 6 hrs. Imatinib was added at concentrations of 0, 1, 5, and 10 μM. The supernatants were harvested and the cytotoxicity was measured by standard chromium 51 release assay.

As for `Cc1nc(Nc2ncc(C(=O)Nc3c(C)cccc3Cl)s2)cc(N2CCN(CCO)CC2)n1` [dasatinib], in data set [1], the “Tumor burden by luciferin imaging” value is on record as “initially had clearance of tumor, but relapsed by week 4 of therapy”. The “Solubility in aqueous solution” value in data set [2] is recorded as “not soluble in aqueous solution”. In data set [3], the “Clinical condition of mice” value is “looked ill with significant weight loss” and the Discontinuation of therapy entry was “discontinued due to toxicity”.
As to `Cc1ccc(NC(=O)c2ccc(CN3CCN(C)CC3)cc2)cc1Nc1nccc(-c2cccnc2)n1` [imatinib], the “Tumor burden by luciferin imaging” value in data set [4] is “reduced tumor burden compared to control animals”. Also, the “Effect of imatinib on ADCC mediated by WT-1 antibody” value in data set [5] is on record as “does not affect”.
